Experimental data as given in US20140249135A1, “PIM KINASE INHIBITORS AND METHODS OF THEIR USE” (NOVARTIS AG, priority 2007, published 2014).
Where two headings read alike, the source gives them in different places.

Columns and labels:
[1] = target: T1, human full length PKCE enzyme (Homo sapiens, UniProt Q02156); experiment: In vitro PKCE assay; format: biochemical; conditions: 10 nM enzyme, 40 uM peptide substrate, 20 uM ATP, KinaseGlo Plus readout; read-out: PKCε IC50
T1 construct: human full length PKCE enzyme purchased from InVitrogen; purchased InVitrogen
T1 sequence (Q02156 1-737): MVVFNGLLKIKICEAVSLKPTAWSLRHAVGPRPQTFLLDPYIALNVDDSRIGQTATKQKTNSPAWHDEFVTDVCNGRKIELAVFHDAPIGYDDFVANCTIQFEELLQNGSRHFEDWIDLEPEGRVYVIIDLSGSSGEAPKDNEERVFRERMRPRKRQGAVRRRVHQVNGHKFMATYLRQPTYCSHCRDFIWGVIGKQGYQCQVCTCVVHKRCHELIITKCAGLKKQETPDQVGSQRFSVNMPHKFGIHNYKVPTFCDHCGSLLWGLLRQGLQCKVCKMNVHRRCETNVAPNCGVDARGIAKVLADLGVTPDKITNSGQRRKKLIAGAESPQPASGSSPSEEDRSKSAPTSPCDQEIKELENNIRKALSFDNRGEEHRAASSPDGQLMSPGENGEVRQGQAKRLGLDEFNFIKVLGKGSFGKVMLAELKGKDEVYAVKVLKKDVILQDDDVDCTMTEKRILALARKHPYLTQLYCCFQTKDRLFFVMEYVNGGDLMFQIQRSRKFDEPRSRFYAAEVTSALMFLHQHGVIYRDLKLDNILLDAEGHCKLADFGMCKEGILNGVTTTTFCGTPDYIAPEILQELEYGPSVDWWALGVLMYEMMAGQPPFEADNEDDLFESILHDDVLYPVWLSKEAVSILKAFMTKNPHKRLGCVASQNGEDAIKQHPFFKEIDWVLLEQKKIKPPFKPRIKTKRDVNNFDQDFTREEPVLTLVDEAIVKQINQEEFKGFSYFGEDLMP

Pim2 kinase = Pim2 kinase (Homo sapiens, UniProt Q9P1W9); experiment: Pim2 ATP depletion assay; format: biochemical;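 also: Luciferase-based luminescent readout of ATP remaining after PIM2 phosphorylates a BAD peptide, final 5 nM enzyme, 4 µM ATP, 10 µM peptide, 2.5% DMSO, run to roughly half ATP consumption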
KDR kinase = KDR kinase (Homo sapiens, UniProt P35968); experiment: KDR AlphaScreen assay; conditions: KDR IC50 (μM)
Pim3 kinase = Pim3 kinase (Homo sapiens, UniProt Q86V86); experiment: Pim3 ATP depletion assay; format: biochemical
Pim1 kinase = Pim1 kinase (Homo sapiens, UniProt P11309); experiment: Pim1 ATP depletion assay; format: biochemical;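 also: Luciferase-luciferin luminescence readout of residual ATP after PIM1 transfers phosphate to a peptide substrate, 40 µM ATP added, reaction run to roughly half ATP consumption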
[2] = Pim1 ATP depletion assay, read-out: IC50 (μM) PIM1

KDR kinase, sequence (P35968 20-1356): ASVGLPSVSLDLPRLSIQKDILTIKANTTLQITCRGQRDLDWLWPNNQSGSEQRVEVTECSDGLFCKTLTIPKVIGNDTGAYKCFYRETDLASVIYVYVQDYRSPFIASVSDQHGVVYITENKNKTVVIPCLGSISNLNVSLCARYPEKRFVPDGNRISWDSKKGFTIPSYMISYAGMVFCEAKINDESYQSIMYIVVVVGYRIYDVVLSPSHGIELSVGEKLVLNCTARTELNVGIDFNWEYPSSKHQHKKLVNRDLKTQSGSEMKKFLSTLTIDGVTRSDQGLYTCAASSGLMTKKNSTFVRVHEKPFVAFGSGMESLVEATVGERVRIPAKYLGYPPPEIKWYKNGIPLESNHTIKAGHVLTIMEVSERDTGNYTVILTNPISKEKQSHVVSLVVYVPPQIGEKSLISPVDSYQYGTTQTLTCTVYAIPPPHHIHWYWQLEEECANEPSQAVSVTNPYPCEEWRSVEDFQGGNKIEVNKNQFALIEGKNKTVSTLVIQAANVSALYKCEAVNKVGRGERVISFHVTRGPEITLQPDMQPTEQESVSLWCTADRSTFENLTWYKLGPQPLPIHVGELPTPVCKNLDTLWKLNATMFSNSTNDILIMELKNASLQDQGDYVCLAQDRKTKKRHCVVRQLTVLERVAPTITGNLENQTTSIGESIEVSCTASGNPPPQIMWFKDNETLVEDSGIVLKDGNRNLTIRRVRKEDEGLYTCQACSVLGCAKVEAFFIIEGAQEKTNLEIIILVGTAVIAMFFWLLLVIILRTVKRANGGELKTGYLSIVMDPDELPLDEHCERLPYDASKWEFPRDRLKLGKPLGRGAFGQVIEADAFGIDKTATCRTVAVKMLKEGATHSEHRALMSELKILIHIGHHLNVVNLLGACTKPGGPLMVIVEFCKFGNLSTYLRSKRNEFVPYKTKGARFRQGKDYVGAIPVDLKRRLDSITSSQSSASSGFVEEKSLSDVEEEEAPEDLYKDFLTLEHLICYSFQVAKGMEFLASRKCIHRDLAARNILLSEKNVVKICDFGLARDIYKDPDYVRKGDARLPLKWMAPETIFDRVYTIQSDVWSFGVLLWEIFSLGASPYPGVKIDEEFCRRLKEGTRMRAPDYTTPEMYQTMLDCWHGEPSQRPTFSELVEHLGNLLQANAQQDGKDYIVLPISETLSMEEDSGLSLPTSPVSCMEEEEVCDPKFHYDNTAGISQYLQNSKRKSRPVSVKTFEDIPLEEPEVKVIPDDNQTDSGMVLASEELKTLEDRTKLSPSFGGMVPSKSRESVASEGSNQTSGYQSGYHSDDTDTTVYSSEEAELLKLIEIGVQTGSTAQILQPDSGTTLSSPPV
Pim1 kinase, sequence (P11309 whole entry): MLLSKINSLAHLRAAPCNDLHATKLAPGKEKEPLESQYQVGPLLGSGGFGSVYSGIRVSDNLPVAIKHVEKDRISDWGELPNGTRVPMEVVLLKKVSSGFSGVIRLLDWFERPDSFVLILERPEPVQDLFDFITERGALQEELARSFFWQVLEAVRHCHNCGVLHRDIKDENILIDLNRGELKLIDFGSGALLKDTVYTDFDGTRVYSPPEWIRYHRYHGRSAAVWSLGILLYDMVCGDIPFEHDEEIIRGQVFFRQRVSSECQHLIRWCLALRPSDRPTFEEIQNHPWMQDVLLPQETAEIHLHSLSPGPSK
Pim2 kinase, sequence (Q9P1W9 whole entry): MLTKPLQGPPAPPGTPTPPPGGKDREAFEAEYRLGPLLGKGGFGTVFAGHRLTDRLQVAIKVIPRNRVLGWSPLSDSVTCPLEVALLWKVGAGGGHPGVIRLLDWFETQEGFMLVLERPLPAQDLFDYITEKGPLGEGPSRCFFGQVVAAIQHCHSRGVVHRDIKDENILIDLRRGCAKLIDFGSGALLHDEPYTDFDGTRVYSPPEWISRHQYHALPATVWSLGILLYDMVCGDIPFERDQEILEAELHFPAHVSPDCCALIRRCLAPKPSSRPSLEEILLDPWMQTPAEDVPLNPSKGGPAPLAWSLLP

IC50 [1] | IC50 (Pim2 kinase; read-out: IC50 (μM) PIM2) | IC50 (KDR kinase) | IC50 (Pim3 kinase; read-out: IC50 (μM) PIM3) | IC50 (Pim1 kinase; [2]) | IC50 (Pim1 kinase) | IC50 (Pim2 kinase; read-out: PIM2 IC50) | IC50 (Pim3 kinase; read-out: PIM3 IC50) | IC50 (Pim1 kinase; Pim1 ATP depletion assay, read-out: PIM1 IC50) | Compound
> 25000 nM | > 25 µM | 1 to 10 µM | 1 to 10 µM | 1 to 10 µM | – | – | – | – | Nc1ncc(-c2ccccc2F)nc1C(=O)Nc1cc(C(=O)c2ccccc2)ccc1N1CCNCC1 [Example 438, 3-amino-6-(2-fluoro-phenyl)-pyrazine-2-carboxylic acid (5-benzoyl-2-piperazin-1-yl-phenyl)-amide]
< 1000 nM | 1 to 10 µM | 1 to 10 µM | < 1 µM | < 1 µM | – | – | – | – | NC(=O)c1cccc(-c2cnc(N)c(C(=O)Nc3ccccc3N3CCNCC3)n2)c1 [Example 385, 3-amino-6-(3-carbamoyl-phenyl)-pyrazine-2-carboxylic acid (2-piperazin-1-yl-phenyl)-amide]
10000 to 25000 nM | < 1 µM | > 25 µM | < 1 µM | < 1 µM | – | – | – | – | Nc1ncc(-c2ccc(N)c(C(=O)Nc3cnccc3N3CCC[C@H](N)C3)n2)cn1 [Example 411, 3-amino-6-(2-amino-pyrimidin-5-yl)-pyridine-2-carboxylic acid ((S)-3-amino-3,4,5,6-tetrahydro-2H-[1,4′]bipyridinyl-3′-yl)-amide]
< 1000 nM | 1 to 10 µM | 1 to 10 µM | < 1 µM | < 1 µM | – | – | – | – | COc1ccc(-c2cnc(N)c(C(=O)Nc3ccccc3N3CCNCC3)n2)cc1 [Example 386, 3-amino-6-(4-methoxy-phenyl)-pyrazine-2-carboxylic acid (2-piperazin-1-yl-phenyl)-amide]
10000 to 25000 nM | > 25 µM | < 1 µM | 1 to 10 µM | 1 to 10 µM | – | – | – | – | COc1ccc(-c2cnc(N)c(C(=O)Nc3cc(C(=O)c4ccccc4)ccc3N3CCNCC3)n2)cc1 [Example 441, 3-amino-6-(4-methoxy-phenyl)-pyrazine-2-carboxylic acid (5-benzoyl-2-piperazin-1-yl-phenyl)-amide]
< 1000 nM | 1 to 10 µM | < 1 µM | < 1 µM | < 1 µM | – | – | – | – | NC(=O)c1cccc(-c2cnc(N)c(C(=O)Nc3ccccc3N3CCC(N)CC3)n2)c1 [Example 380, 3-amino-6-(3-carbamoyl-phenyl)-pyrazine-2-carboxylic acid [2-(4-amino-piperidin-1-yl)-phenyl]-amide]
< 1000 nM | > 25 µM | 1 to 10 µM | 1 to 10 µM | < 1 µM | – | – | – | – | COc1ncccc1-c1cnc(N)c(C(=O)Nc2ccccc2N2CCNCC2)n1 [Example 390, 3-amino-6-(2-methoxy-pyridin-3-yl)-pyrazine-2-carboxylic acid (2-piperazin-1-yl-phenyl)-amide]
< 1000 nM | 1 to 10 µM | 1 to 10 µM | < 1 µM | < 1 µM | – | – | – | – | Nc1ncc(-c2ccccc2F)nc1C(=O)Nc1ccccc1N1CCNCC1 [Example 383, 3-amino-6-(2-fluoro-phenyl)-pyrazine-2-carboxylic acid (2-piperazin-1-yl-phenyl)-amide]
< 1000 nM | 1 to 10 µM | < 1 µM | < 1 µM | < 1 µM | – | – | – | – | COc1cncc(-c2cnc(N)c(C(=O)Nc3cnccc3N3CCC(N)CC3)n2)n1 [Example 366, 5-amino-6′-methoxy-[2,2′]bi-pyrazinyl-6-carboxylic acid (4-amino-3,4,5,6-tetrahydro-2H-[1,4′]bipyridinyl-3′-yl)-amide]
1000 to 10000 nM | > 25 µM | 1 to 10 µM | 1 to 10 µM | 1 to 10 µM | – | – | – | – | Nc1ncc(-c2ccccc2)nc1C(=O)Nc1cc(C(=O)c2ccccc2)ccc1N1CCC(N)CC1 [Example 436, 3-amino-6-phenyl-pyrazine-2-carboxylic acid [2-(4-amino-piperidin-1-yl)-5-benzoyl-phenyl]-amide]
1000 to 10000 nM | – | > 25 µM | – | – | – | 1 to 10 µM | < 1 µM | < 1 µM | CN1CCC(NC2CCCN(c3ccncc3NC(=O)c3nc(Br)cnc3N)C2)CC1 (stereo not shown) [Example 597, 3-amino-6-bromo-N-(4-(3-(1-methylpiperidin-4-ylamino)piperidin-1-yl)pyridin-3-yl)pyrazine-2-carboxamide]
1000 to 10000 nM | > 25 µM | 10 to 25 µM | 1 to 10 µM | 1 to 10 µM | – | – | – | – | Nc1ncc(-c2ccccc2Oc2ccccc2)nc1C(=O)Nc1ccccc1N1CCNCC1 [Example 387, 3-amino-6-(2-phenoxy-phenyl)-pyrazine-2-carboxylic acid (2-piperazin-1-yl-phenyl)-amide]

Continued, compound first:

Compound | IC50 [1] | IC50 (Pim2 kinase; read-out: IC50 (μM) PIM2) | IC50 (KDR kinase) | IC50 (Pim3 kinase; read-out: IC50 (μM) PIM3) | IC50 (Pim1 kinase; [2]) | IC50 (Pim1 kinase) | IC50 (Pim2 kinase; read-out: PIM2 IC50) | IC50 (Pim3 kinase; read-out: PIM3 IC50) | IC50 (Pim1 kinase; Pim1 ATP depletion assay, read-out: PIM1 IC50)
Nc1nccnc1C(=O)Nc1cnccc1C1=CCCCC1 [Example 118, 3-amino-N-(4-cyclohex-1-en-1-ylpyridin-3-yl)pyrazine-2-carboxamide] | < 1000 nM | 1 to 10 µM | < 1 µM | < 1 µM | < 1 µM | – | – | – | –
Cc1ccc(NC(=O)c2nccnc2N)c(N2CCCC(N)C2)c1 (stereo not shown) [Example 229, 3-amino-N-[2-(3-aminopiperidin-1-yl)-4-methylphenyl]pyrazine-2-carboxamide] | 1000 to 10000 nM | 1 to 10 µM | > 25 µM | < 1 µM | < 1 µM | – | – | – | –
Nc1nccnc1C(=O)Nc1cc(C(F)(F)F)ccc1N1CCC(N)CC1 [Example 225, 3-amino-N-[2-(4-aminopiperidin-1-yl)-5-(trifluoromethyl)phenyl]-pyrazine-2-carboxamide] | 1000 to 10000 nM | 10 to 25 µM | > 25 µM | < 1 µM | < 1 µM | – | – | – | –
NCC1CCCN(c2cnc(=O)[nH]c2NC(=O)c2nccnc2N)C1 (stereo not shown) [Example 135, 3-amino-N-{5-[3-(amino-methyl)piperidin-1-yl]-2-oxo-2,3-dihydropyrimidin-4-yl}-pyrazine-2-carboxamide] | < 1000 nM | < 1 µM | 1 to 10 µM | < 1 µM | < 1 µM | – | – | – | –
Nc1nccnc1C(=O)Nc1cccnc1N1CCCC(N)C1 (stereo not shown) [Example 196, 3-amino-N-[2-(3-aminopiperidin-1-yl)pyridin-3-yl]pyrazine-2-carboxamide] | 1000 to 10000 nM | 10 to 25 µM | > 25 µM | 1 to 10 µM | 1 to 10 µM | – | – | – | –
N#Cc1ccc(N2CCCC(N)C2)c(NC(=O)c2nccnc2N)c1 (stereo not shown) [Example 230, 3-amino-N-[2-(3-aminopiperidin-1-yl)-5-cyanophenyl]pyrazine-2-carboxamide] | < 1000 nM | < 1 µM | > 25 µM | < 1 µM | < 1 µM | – | – | – | –
NCCC(=O)N1CCN(c2ccncc2NC(=O)c2nccnc2N)CC1 [Example 188, 3-amino-N-{4-[4-(3-aminopropanoyl)piperazin-1-yl]pyridin-3-yl}pyrazine-2-carboxamide] | < 1000 nM | 1 to 10 µM | 1 to 10 µM | < 1 µM | – | < 1 µM | – | – | –
Cc1ccc(N2CCCC(N)C2)c(NC(=O)c2nccnc2N)c1 (stereo not shown) [Example 218, 3-amino-N-[2-(3-aminopiperidin-1-yl)-5-methylphenyl]pyrazine-2-carboxamide] | 1000 to 10000 nM | 10 to 25 µM | > 25 µM | < 1 µM | < 1 µM | – | – | – | –
NC(=O)c1cccc(-c2cnc(N)c(C(=O)Nc3cnccc3N3CCNCC3)n2)c1 [Example 361, 3-amino-6-(3-carbamoyl-phenyl)-pyrazine-2-carboxylic acid (4-piperazin-1-yl-pyridin-3-yl)-amide] | < 1000 nM | < 1 µM | < 1 µM | < 1 µM | < 1 µM | – | – | – | –
NC(=O)c1ccc(N2CCCCC2)c(NC(=O)c2nc(Br)cnc2N)c1 [Example 133, 3-amino-6-bromo-N-(5-carbamoyl-2-piperidin-1-yl-phenyl)pyrazine-2-carboxamide] | > 25000 nM | < 1 µM | 1 to 10 µM | < 1 µM | < 1 µM | – | – | – | –
Nc1nccnc1C(=O)Nc1cc(C(F)(F)F)ccc1N1CCCC(N)C1 (stereo not shown) [Example 226, 3-amino-N-[2-(3-aminopiperidin-1-yl)-5-(trifluoromethyl)phenyl]-pyrazine-2-carboxamide] | 1000 to 10000 nM | 1 to 10 µM | > 25 µM | < 1 µM | < 1 µM | – | – | – | –
